Laboratory results: US20260242478A1, “ANTIBODIES FOR TARGETING PSMA AND CD28 AND USES THEREOF” (Janux Therapeutics, Inc., priority 2023, published 2026)

Columns and labels:
[1] = target: anti-CD28 Fab (SEQ ID NOs: 696, 697); test: anti-CD28 Fab binding to peptides, ELISA; conditions: for EC50: anti-CD28 Fab
[2] = target: anti-CD28 scFv (disulfide) (SEQ ID NO: 10); test: anti-CD28 scFv (disulfide) binding to peptides, ELISA; conditions: Table 27
Method: Peptides were evaluated for their ability to bind to ant-CD28 Fab (SEQ ID NOs: 696.697) or anti-CD28 scFv (disulfide) (SEQ ID NO: 10) in a standard ELISA format as described above.

[3] = target: PSMA Fab (SEQ ID NOs: 19, 20); test: PSMA Fab binding to peptides, ELISA; conditions: for EC50: PSMA Fab binding to biotinylated peptide, ELISA
Sequence of PSMA Fab (SEQ ID NOs: 19, 20) (as listed by the source): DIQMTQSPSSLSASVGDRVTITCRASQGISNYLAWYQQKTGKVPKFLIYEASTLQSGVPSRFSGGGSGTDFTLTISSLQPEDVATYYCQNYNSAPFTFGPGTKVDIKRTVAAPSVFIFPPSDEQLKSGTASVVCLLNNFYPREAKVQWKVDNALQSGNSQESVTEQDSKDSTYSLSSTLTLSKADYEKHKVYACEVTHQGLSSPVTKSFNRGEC
Sequence of PSMA Fab (SEQ ID NOs: 19, 20) (as listed by the source): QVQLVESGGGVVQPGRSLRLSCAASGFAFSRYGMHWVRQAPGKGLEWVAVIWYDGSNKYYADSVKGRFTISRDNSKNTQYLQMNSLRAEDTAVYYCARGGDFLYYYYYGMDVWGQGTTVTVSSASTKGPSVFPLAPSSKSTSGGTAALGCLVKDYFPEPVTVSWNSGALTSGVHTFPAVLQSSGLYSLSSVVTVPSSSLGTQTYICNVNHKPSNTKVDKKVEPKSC
Method: Peptides of Table 9 were evaluated for their ability to bind to PSMA Fab in a standard enzyme linked immunosorbent assay (ELISA) format. […] PSMA Fab diluted in buffer was then added to the peptide captured plates. Bound antibody was detected using a standard horse radish peroxidase conjugate secondary antibody.

[4] = target: PSMA Fab (SEQ ID NOs: 19, 20) binding to the PSMA antigen; test: Inhibition of PSMA Fab binding to PSMA by peptides, competition ELISA (incl. alanine scanning); parameters: key to Mutation Status: tolerant (T); somewhat tolerant (ST); intolerant (IT)
Sequence of PSMA Fab (SEQ ID NOs: 19, 20) binding to the PSMA antigen (Q04609 whole entry partner): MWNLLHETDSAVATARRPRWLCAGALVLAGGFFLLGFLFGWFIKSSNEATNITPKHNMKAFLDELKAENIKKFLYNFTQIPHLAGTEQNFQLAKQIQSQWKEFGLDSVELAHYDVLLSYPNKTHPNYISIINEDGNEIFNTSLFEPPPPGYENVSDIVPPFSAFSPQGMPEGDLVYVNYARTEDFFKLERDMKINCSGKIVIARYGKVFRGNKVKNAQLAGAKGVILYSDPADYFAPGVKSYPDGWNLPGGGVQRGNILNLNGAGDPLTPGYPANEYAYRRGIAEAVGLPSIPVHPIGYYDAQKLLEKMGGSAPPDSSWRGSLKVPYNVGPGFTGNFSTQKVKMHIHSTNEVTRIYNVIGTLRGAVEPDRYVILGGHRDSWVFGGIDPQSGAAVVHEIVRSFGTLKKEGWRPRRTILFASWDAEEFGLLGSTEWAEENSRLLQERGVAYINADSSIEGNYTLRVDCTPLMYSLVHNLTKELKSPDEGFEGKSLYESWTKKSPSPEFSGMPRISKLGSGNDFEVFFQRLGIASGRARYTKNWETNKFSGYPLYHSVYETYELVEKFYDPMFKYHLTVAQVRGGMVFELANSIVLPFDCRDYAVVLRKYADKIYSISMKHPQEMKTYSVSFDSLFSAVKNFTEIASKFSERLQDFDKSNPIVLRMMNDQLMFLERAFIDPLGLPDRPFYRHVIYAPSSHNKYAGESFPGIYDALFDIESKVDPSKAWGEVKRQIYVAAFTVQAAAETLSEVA
Method: PSMA Fab fixed at 0.3 nanomolar (nM) concentration was pre-incubated with 0-100 micromolar (μM) titrated peptides. After a short pre-incubation period, the mixture of titrated peptide with fixed PSMA Fab were added to the PSMA antigen coated plates. After a short incubation on the plates, bound PSMA Fab was detected with a standard horse radish peroxidase conjugated secondary antibody.
The tables also designate each alanine mutation as tolerant (T), somewhat tolerant (ST), or intolerant (IT) based on changes in binding inhibition ability relative to the non-mutated peptide. Cys-5 and Cys-11 of peptide-179 and peptide-180 were not mutated.

[5] = test system: PSMA Fab (SEQ ID NOs: 19, 20); test: Kinetic binding of peptides to PSMA Fab, BLI
Method: Kinetic binding of the peptides of Table 9 to PSMA Fab (SEQ ID NOs: 19, 20) was evaluated using biolayer interferometry (BLI). Briefly, biotinylated peptides were loaded onto a streptavidin coated Octet® V SAX biosensor, quenched in biocytin, and baselined in buffer. […] After a short association period, sensors were transferred into buffer and the dissociation of bound Ab-1 was measured. Association and dissociation signals were recorded in real time and analyzed using a 1:1 binding model within the instrument software. Analysis using a 1:1 binding model enabled the calculation of the on and off rate constant as well as affinity, Kn.

[6] = test system: anti-CD28 Fab (SEQ ID NOs: 696, 697); test: Kinetic binding of peptides to anti-CD28 Fab, BLI; conditions: for Off rate t½: Table 26
[7] = target: anti-CD28 scFv (SEQ ID NO: 9); test: Kinetic binding of anti-CD28 scFv to peptides, bio-layer interferometry (Octet RED96); conditions: Table 36; anti-CD28 scFv titrated 100-12.5 nM, 200 nM peptide loaded
Sequence of anti-CD28 scFv (SEQ ID NO: 9) (as listed by the source): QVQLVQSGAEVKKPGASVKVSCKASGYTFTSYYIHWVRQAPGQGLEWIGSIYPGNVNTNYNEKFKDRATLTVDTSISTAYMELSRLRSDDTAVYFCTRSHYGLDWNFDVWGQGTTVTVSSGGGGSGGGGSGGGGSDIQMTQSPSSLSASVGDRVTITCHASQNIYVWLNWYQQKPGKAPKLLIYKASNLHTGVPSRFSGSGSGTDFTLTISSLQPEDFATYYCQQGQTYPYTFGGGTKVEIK
Method: (§1) Briefly, streptavidin biosensors were loaded with biotinylated peptides and baselined in buffer. […] After a short association period, sensors were transferred into buffer and the dissociation of bound anti-CD28 scFv was measured. The timing and steps of the experiment are shown in the accompanying table. Association and dissociation signals were recorded in real time and analyzed using a 1:1 binding model within the instrument software. Analysis using a 1:1 binding model enabled the calculation of the on and off rate constants as well as affinity, KD.
as §1, with “KD. FIGS. 70A-70F illustrate kinetic binding of anti-CD28 scFv binding to peptides as measured by Octet. FIGS. 70G-70U illustrate kinetic binding of peptides to the anti-CD28 scFv as measured by Octet.” for “KD.”

[8] = Table 38, PSMA Fab fixed at 0.3 nM, peptide 0-100 μM
[9] = Table 39, PSMA Fab fixed at 0.3 nM, peptide 0-100 μM
[10] = Table 40, alanine scanning of Peptide-179, change in binding inhibition relative to non-mutated peptide
[11] = Table 41, alanine scanning of Peptide-180, change in binding inhibition relative to non-mutated peptide
[12] = Table 40, competition binding ELISA, alanine scanning sequences of Peptide-179

Sequence of anti-CD28 Fab (SEQ ID NOs: 696, 697) (as listed by the source): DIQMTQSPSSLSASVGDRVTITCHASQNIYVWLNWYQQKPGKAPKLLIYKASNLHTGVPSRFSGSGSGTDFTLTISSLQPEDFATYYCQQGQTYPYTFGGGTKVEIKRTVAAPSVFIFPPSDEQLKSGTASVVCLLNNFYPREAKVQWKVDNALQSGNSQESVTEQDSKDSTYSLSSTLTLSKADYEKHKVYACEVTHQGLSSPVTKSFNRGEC
Sequence of anti-CD28 Fab (SEQ ID NOs: 696, 697) (as listed by the source): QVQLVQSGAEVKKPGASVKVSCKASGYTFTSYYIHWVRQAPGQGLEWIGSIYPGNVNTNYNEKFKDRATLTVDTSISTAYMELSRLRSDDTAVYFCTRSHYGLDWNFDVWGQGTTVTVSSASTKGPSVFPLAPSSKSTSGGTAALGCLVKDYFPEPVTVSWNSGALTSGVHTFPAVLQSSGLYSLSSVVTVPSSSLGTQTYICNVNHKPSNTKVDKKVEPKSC
Sequence of anti-CD28 scFv (disulfide) (SEQ ID NO: 10) (as listed by the source): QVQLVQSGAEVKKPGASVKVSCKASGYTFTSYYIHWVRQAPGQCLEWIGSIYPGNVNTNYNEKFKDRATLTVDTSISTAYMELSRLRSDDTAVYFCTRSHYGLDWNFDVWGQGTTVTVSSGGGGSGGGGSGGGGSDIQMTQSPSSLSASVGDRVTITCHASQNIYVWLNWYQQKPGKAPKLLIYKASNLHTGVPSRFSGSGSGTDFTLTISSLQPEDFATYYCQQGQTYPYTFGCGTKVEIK

Substance: FMCLPQNPHPLCFK [Peptide-77]
- EC50 ([1]; Table 24): > 1000 nM
- EC50 [2]: > 1000 nM

Substance: ECHWSMWAVGHACF [Peptide-83]
- EC50 ([1]; Table 24): > 1000 nM
- EC50 [2]: > 1000 nM

Substance: ACDTYFAGMINECF [Peptide-79]
- EC50 ([1]; Table 24): 97 nM
- EC50 [2]: 73.2 nM

Substance: DCPWLSGFSRPLLC [Peptide-93]
- EC50 ([1]; Table 24): > 1000 nM
- EC50 [2]: > 1000 nM

Substance: ILCGLYEALVSECG [Peptide-187]
- EC50 ([3]; Table 38): > 3000 nM
- IC50 [4, 8]: > 100 µM

Substance: YCWVDADMWLIFRC [Peptide-199]
- IC50 [4, 9]: > 100 µM

Substance: MEYCSFHRFTCVLW [Peptide-183]
- IC50 [4, 8]: > 100 µM

Substance: SKLLCVPPWMCYHV [Peptide-194]
- Off rate t1/2 ([5]; Table 39, 1:1 binding model): <1 min

Substance: NAHCWLWVPAHCRV [Peptide-167]
- EC50 ([3]; Table 37): > 1000 nM
- IC50 ([4]; Table 37, PSMA Fab fixed at 0.3 nM, peptide 0-100 μM): > 100 µM

Substance: Peptide-2687 (LMAWCTPRWMCAAE)
- Mutation Status [4, 10]: ST

Substance: MCFVTGWGVPDDCN [Peptide-208]
- IC50 [4, 9]: > 100 µM

Substance: IAVLCQPAWMCAGF [Peptide-256]
- Mutation Status [4, 11]: T

Substance: TCLRFADLAIIHCD [Peptide-160]
- EC50 ([3]; Table 37): > 1000 nM

Substance: LMKWCTPRAMCAAE [Peptide-248]
- Mutation Status [4, 10]: IT
- IC50 [4, 12]: > 100 µM

Substance: FWECYSSFCRFVEG [Peptide-196]
- IC50 [4, 9]: > 100 µM

Substance: IAVLCQPNWACAGF [Peptide-258]
- Mutation Status [4, 11]: IT
- IC50 ([4]; Table 41, competition binding ELISA, alanine scanning sequences of Peptide-180): > 100 µM

Substance: NCWWHDFRAGHVVC [Peptide-161]
- EC50 ([3]; Table 37): > 1000 nM

Substance: PLCGTEEVWWECRL [Peptide-166]
- EC50 ([3]; Table 37): > 1000 nM

Substance: DCWWMFESYPGRCI [Peptide-86]
- EC50 ([1]; Table 24): > 1000 nM
- EC50 [2]: > 1000 nM

Substance: YCAGHAWQYINKCL [Peptide-87]
- binding to the anti-CD28 Fab [1]: strong binding
- EC50 ([1]; Table 24): 49 nM
- EC50 ([1]; Table 26): 30.6 nM
- EC50 [2]: 156 nM
- Off rate t½ [6]: 0.7 min
- kdis ([6]; Table 30, BLI): 0.0202 s⁻¹
- kon ([6]; Table 30, BLI): 10000 M⁻¹ s⁻¹

Substance: WECLKYTEANACTY [Peptide-76]
- EC50 ([1]; Table 24): > 1000 nM
- EC50 [2]: > 1000 nM

Substance: WCWDYKLWVPMTCP [Peptide-85]
- EC50 ([1]; Table 24): > 1000 nM
- EC50 [2]: > 1000 nM

Substance: YCEGHLPEYIWKCL [Peptide-135]
- EC50 ([1]; Table 26): 2.1 nM
- Off rate t½ [6]: 0.9 min

Substance: FCNWVDGDVWVVCK [Peptide-172]
- EC50 ([3]; Table 37): > 1000 nM

Substance: MEYCSFHRFTCVLW [Peptide-193]
- IC50 [4, 9]: > 100 µM

Substance: LMKWCTPRWMC [Peptide-250]
- Mutation Status [4, 10]: T
- IC50 [4, 12]: 6.64 µM

Substance: WCWDYREWVPMTCP [Peptide-82]
- EC50 ([1]; Table 24): > 1000 nM
- EC50 [2]: > 1000 nM

Substance: EGCLTLVDGRAWCW [Peptide-173]
- EC50 ([3]; Table 37): > 1000 nM

Substance: PLCGTEEVWWECRL [Peptide-197]
- IC50 [4, 9]: > 100 µM

Substance: IAVACQPNWMCAGF [Peptide-253]
- Mutation Status [4, 11]: ST

Substance: LCEWWTSHVDAWCA [Peptide-213]
- IC50 [4, 9]: > 100 µM

Substance: YCAGHSPINIGKCL [Peptide-84]
- EC50 ([1]; Table 24): 337 nM
- EC50 [2]: > 1000 nM

Substance: PDCQTILFKPWCVR [Peptide-78]
- EC50 ([1]; Table 24): > 1000 nM
- EC50 [2]: > 1000 nM

Substance: YCEGHLPEYREKCL [Peptide-126]
- kdis ([6]; Table 30, BLI): 0.0191 s⁻¹

Substance: MCQWDELNYWMDCD [Peptide-202]
- Off rate t1/2 ([5]; Table 39, 1:1 binding model): <1 min

Substance: LMKWCTPRWMCAAE [Peptide-179]
- binding to the PSMA Fab [3]: strong binding
- EC50 ([3]; Table 38): 5.9 nM
- EC50 ([3]; Table 39): 120 nM
- Off rate t1/2 ([5]; Table 38, 1:1 binding model): <1 min
- Off rate t1/2 ([5]; Table 39, 1:1 binding model): 1.09 min

Substance: FVCWTFGEHIKVCR [Peptide-186]
- EC50 ([3]; Table 38): > 3000 nM
- IC50 [4, 8]: > 100 µM

Substance: MDWCPRDLWVHCFA [Peptide-41]
- EC50 ([1]; Table 24): 490 nM
- EC50 [2]: 98.5 nM
- Kd [7]: 42.3 nM
- kdis [7]: 0.00154 s⁻¹
- kon [7]: 36400 M⁻¹ s⁻¹

Substance: SCFSFARLEVVPCD [Peptide-159]
- EC50 ([3]; Table 37): > 1000 nM
